In ChEMBL document CHEMBL1817626, “The structure-activity relationship of urea derivatives as anti-tuberculosis agents” (Bioorg Med Chem, 2011):
≈ marks a conversion by molar mass, not a printed value.

What was measured:
[1] = biological target: T1, Hydrolase, alpha/beta hydrolase fold family (Mycobacterium tuberculosis) (UniProt O69638); assay: Inhibition of Mycobacterium tuberculosis recombinant EphE expressed in Escherichia coli BL21 using CMNPC as substrate at 10 nM after 30 mins by fluorescent assay relative to control
T1 sequence (whole entry): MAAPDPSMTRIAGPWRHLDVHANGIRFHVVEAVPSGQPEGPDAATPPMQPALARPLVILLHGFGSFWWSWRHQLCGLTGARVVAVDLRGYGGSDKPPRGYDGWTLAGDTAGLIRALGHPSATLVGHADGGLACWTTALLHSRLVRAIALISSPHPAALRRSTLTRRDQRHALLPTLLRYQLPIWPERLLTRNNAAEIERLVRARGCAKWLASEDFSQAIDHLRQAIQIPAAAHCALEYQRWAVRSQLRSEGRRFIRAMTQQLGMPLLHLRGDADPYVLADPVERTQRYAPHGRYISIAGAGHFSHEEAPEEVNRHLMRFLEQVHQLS

[2] = biological target: T2, Bifunctional epoxide hydrolase 2 (Homo sapiens, UniProt P34913); assay: Inhibition of human recombinant soluble epoxide hydrolase using CMNPC as substrate after 10 mins by fluorescent assay
T2 sequence (P34913 whole entry): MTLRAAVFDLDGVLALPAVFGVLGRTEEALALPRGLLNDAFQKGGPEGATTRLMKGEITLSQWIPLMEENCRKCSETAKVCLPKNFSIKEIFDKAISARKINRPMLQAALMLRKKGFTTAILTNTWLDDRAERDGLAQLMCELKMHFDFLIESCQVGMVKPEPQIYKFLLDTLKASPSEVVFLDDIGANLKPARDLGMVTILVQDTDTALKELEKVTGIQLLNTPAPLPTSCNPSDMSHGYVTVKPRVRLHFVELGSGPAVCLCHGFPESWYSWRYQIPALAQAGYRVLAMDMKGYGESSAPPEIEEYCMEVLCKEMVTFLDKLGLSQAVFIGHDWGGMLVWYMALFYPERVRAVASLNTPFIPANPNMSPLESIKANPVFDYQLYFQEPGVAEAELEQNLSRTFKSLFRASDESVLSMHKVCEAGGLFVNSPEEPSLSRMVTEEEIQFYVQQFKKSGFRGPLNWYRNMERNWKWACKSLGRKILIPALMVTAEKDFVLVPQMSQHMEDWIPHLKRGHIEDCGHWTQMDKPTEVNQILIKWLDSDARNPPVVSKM

Enterococcus faecium = assay: Antibacterial activity against Enterococcus faecium; format: functional
Enterococcus faecalis = assay: Antibacterial activity against Enterococcus faecalis; format: functional
Escherichia coli [3] = assay: Antibacterial activity against Escherichia coli […] TolC; format: functional
Escherichia coli [4] = assay: Antibacterial activity against Escherichia coli K12; format: functional; details: K-12
Pseudomonas aeruginosa = assay: Antibacterial activity against Pseudomonas aeruginosa; format: functional
Klebsiella pneumoniae = assay: Antibacterial activity against Klebsiella pneumoniae; format: functional
Vero = assay: Cytotoxicity against african green monkey Vero cells after 72 hrs by MTT assay; format: cell-based; details: Chlorocebus sabaeus
[5] = biological target: T3, Epoxide hydrolase B (Mycobacterium tuberculosis) (UniProt P95276); assay: Inhibition of Mycobacterium tuberculosis recombinant EphB expressed in Escherichia coli BL21 using CMNPC as substrate at 10 nM after 30 mins by fluorescent assay relative to control
T3 sequence (whole entry): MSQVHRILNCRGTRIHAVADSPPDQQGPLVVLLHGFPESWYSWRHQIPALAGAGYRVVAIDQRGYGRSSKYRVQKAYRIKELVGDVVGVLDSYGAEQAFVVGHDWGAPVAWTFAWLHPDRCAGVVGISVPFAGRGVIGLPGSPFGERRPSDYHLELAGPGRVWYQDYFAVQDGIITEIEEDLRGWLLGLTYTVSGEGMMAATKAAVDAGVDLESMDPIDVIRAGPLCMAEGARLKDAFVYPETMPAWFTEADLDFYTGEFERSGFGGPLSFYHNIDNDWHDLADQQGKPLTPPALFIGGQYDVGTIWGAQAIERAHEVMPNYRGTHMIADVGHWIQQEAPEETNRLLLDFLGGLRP

Bacillus anthracis = assay: microbe, parasite or virus in culture
[6] = test system: Mycolicibacterium smegmatis; assay: microbe, parasite or virus in culture; details: str. MC2 155, 168 h
[7] = test system: Mycobacterium tuberculosis; assay: microbe, parasite or virus in culture; details: H37Rv, 168 h
Staphylococcus aureus = assay: Antibacterial activity against Staphylococcus aureus; format: functional

SMILES | inhibition [1] [%] | IC50 [2] [nM] | MIC (Enterococcus faecium) [µg/mL] | MIC (Enterococcus faecalis) [µg/mL] | MIC (Escherichia coli [3]) [µg/mL] | MIC (Escherichia coli [4]) [µg/mL] | MIC (Pseudomonas aeruginosa) [µg/mL] | MIC (Klebsiella pneumoniae) [µg/mL] | IC50 (Vero) [µg/mL] | inhibition [5] [%] | MIC (Bacillus anthracis) [µg/mL] | MIC [6] [µg/mL] | MIC [7] [µg/mL] | MIC (Staphylococcus aureus) [µg/mL]
CCCCCCCNC(=O)Nc1ccc(F)c(F)c1F | 92.8 | 0.4 | > 200 | > 200 | 6.25 (≈ 21.7 µM) | > 200 | > 200 | > 200 | 130 (≈ 450 µM) | 87.5 | > 200 | > 200 | 6 (≈ 20.8 µM) | 
NNC(=O)c1ccncc1 [ISONIAZID] |  |  |  |  |  |  |  |  |  |  |  |  | 0.01 (≈ 0.0729 µM) | 
CCCCCCCNC(=O)Nc1cccc(C(F)(F)F)c1F | 46.8 | 0.4 | > 200 | > 200 | > 200 | > 200 | > 200 | > 200 |  | 5.5 | > 200 | 100 (≈ 312 µM) | 3 (≈ 9.37 µM) | > 200
Fc1ccc(NC(=S)NC2C3CC4CC(C3)CC2C4)c(F)c1F (centres undefined) | 35.5 | 4.8 | > 200 | > 200 | 3.12 (≈ 9.17 µM) | > 200 | > 200 | > 200 |  | 21.3 | 3.12 (≈ 9.17 µM) |  | 0.8 (≈ 2.35 µM) | > 200
O=C(Nc1ccc(F)c(F)c1F)NC1CCCCCCC1 | 91.6 | 0.4 | > 200 | > 200 | 3.12 (≈ 10.4 µM) | > 200 | > 200 | > 200 | 63.4 (≈ 211 µM) | 95.7 | > 200 | 0.8 (≈ 2.66 µM) |  | 
N#Cc1ccc(NC(=O)NC2C3CC4CC(C3)CC2C4)cc1 (centres undefined) | 72.7 | 1.1 | > 200 | > 200 |  |  | > 200 | > 200 | 7.1 (≈ 24 µM) | 9 | 12.5 (≈ 42.3 µM) | 12.5 (≈ 42.3 µM) | 0.4 (≈ 1.35 µM) | > 200
O=C(Nc1ccc(F)c(F)c1F)NC12CC3CC(CC(C3)C1)C2 | 92.2 |  | > 200 | > 200 | > 200 | > 200 | > 200 | > 200 | 726 (≈ 2240 µM) | 89.7 | > 200 | > 200 |  | 
CCOCCNC(=O)NC12CC3CC(CC(C3)C1)C2 | 17.6 | 525 | > 200 | > 200 | > 200 | > 200 | > 200 | > 200 |  | 18.7 | > 200 | > 200 | 50 (≈ 188 µM) | > 200
CC(C)CCOc1ccc(NC(=O)Nc2ccc(OCCC(C)C)cc2)cc1 | 88.8 | 6.5 | > 200 | > 200 | 3.12 (≈ 8.11 µM) | > 200 | > 200 | > 200 |  | 14.6 | > 200 | > 200 | 200 (≈ 520 µM) | > 200
COc1ccc(NC(=O)NC2C3CC4CC(C3)CC2C4)cc1 (centres undefined) | 83.1 | 14.3 | > 200 | > 200 |  |  | > 200 | > 200 | 13.4 (≈ 44.6 µM) | 95.1 | > 200 | 100 (≈ 333 µM) | 0.4 (≈ 1.33 µM) | > 200
O=C(Nc1ccccc1)Nc1ccccc1 |  | 390 |  |  |  |  |  |  |  |  |  |  |  | 
O=C(Nc1ccc(F)c(F)c1F)OC1C2CC3CC(C2)CC1C3 (centres undefined) | 21.4 | 464 | > 200 | > 200 | 12.5 (≈ 38.4 µM) | > 200 | > 200 | > 200 |  | 10.2 | > 200 | 50 (≈ 154 µM) | 6 (≈ 18.4 µM) | > 200
CN(C(=O)NC1C2CC3CC(C2)CC1C3)c1ccc(F)c(F)c1F (centres undefined) | 22.8 | 38.1 | > 200 | > 200 | 25 (≈ 73.9 µM) | > 200 | > 200 | > 200 |  | 6.7 | > 200 |  | 6 (≈ 17.7 µM) | > 200
CC[C@@H](CO)NCCN[C@@H](CC)CO [ETHAMBUTOL] |  |  |  |  |  |  |  |  |  |  |  |  | 0.01 (≈ 0.0489 µM) | 
O=C(Nc1ccc(F)c(F)c1F)NC1CCCC1 | 36 | 56.2 | > 200 | > 200 | > 200 | > 200 | > 200 | > 200 |  | 86.4 | > 200 | 200 (≈ 774 µM) | 50 (≈ 194 µM) | > 200
O=C(Nc1ccc(F)c(F)c1F)NC1C2CC3CC(C2)CC1C3 (centres undefined) | 71.4 |  | > 200 | > 200 | > 200 | > 200 | > 200 | > 200 |  |  | > 200 |  |  | > 200
CN(C(=O)N(C)C1C2CC3CC(C2)CC1C3)c1ccc(F)c(F)c1F (centres undefined) | 25.2 | 1840 | > 200 | > 200 | 12.5 (≈ 35.5 µM) | > 200 | > 200 | > 200 |  | < 1 | > 200 | 200 (≈ 568 µM) | 12 (≈ 34.1 µM) | > 200
